Data reported in ChEMBL document CHEMBL2434921, “New synthetic aliphatic sulfonamido-quaternary ammonium salts as anticancer chemotherapeutic agents” (2013).
Active and inactive are the calls of the source. The calls are words filed in the database; no cut-off is given here.

Assays:
MDA-MB-231 [1] = assay: Growth inhibition of human MDA-MB-231 cells after 48 hrs by SRB assay; type: functional; details: MDA-MB-231, 48 h
MDA-MB-231 [2] = assay: Growth of human MDA-MB-231 cells at 3 uM after 48 hrs by SRB assay; values are per cent of control; details: MDA-MB-231, 48 h
HCT-15 [3] = assay: Growth inhibition of human HCT15 cells at 0.1 uM after 48 hrs by SRB assay; values are per cent of control; details: HCT-15, 48 h
NUGC-3 [4] = assay: Growth of human NUGC3 cells at 1 uM after 48 hrs by SRB assay; details: NUGC-3, 48 h
NUGC-3 [5] = assay: Growth of human NUGC3 cells at 0.3 uM after 48 hrs by SRB assay; details: NUGC-3, 48 h
ACHN [6] = assay: Growth inhibition of human ACHN cells after 48 hrs by SRB assay; type: functional
HCT-15 [7] = assay: Growth of human HCT15 cells at 3 uM after 48 hrs by SRB assay; details: HCT-15, 48 h
PC-3 [8] = assay: Growth of human PC3 cells at 10 uM after 48 hrs by SRB assay; details: PC-3, 48 h
NCI-H23 [9] = assay: Growth inhibition of human NCI-H23 cells at 0.1 uM after 48 hrs by SRB assay; values are per cent of control; details: NCI-H23, 48 h
NUGC-3 [10] = assay: Growth of human NUGC3 cells at 0.1 uM after 48 hrs by SRB assay; details: NUGC-3, 48 h
NUGC-3 [11] = assay: Growth inhibition of human NUGC3 cells at 10 uM after 48 hrs by SRB assay; values are per cent of control; details: NUGC-3, 48 h
PC-3 [12] = assay: Growth inhibition of human PC3 cells after 48 hrs by SRB assay; type: functional; details: PC-3, 48 h
MDA-MB-231 [13] = assay: Growth inhibition of human MDA-MB-231 cells at 0.3 uM after 48 hrs by SRB assay; values are per cent of control; details: MDA-MB-231, 48 h
ACHN [14] = assay: Growth of human ACHN cells at 0.1 uM after 48 hrs by SRB assay
PC-3 [15] = assay: Growth inhibition of human PC3 cells at 0.1 uM after 48 hrs by SRB assay; values are per cent of control; details: PC-3, 48 h
ACHN [16] = assay: Growth inhibition of human ACHN cells at 3 uM after 48 hrs by SRB assay; values are per cent of control
NUGC-3 [17] = assay: Growth inhibition of human NUGC3 cells at 3 uM after 48 hrs by SRB assay; values are per cent of control; details: NUGC-3, 48 h
PC-3 [18] = assay: Growth inhibition of human PC3 cells at 1 uM after 48 hrs by SRB assay; values are per cent of control; details: PC-3, 48 h
HCT-15 [19] = assay: Growth of human HCT15 cells at 0.3 uM after 48 hrs by SRB assay; details: HCT-15, 48 h
NCI-H23 [20] = assay: Growth inhibition of human NCI-H23 cells after 48 hrs by SRB assay; type: functional; details: NCI-H23, 48 h
MDA-MB-231 [21] = assay: Growth of human MDA-MB-231 cells at 10 uM after 48 hrs by SRB assay; details: MDA-MB-231, 48 h
ACHN [22] = assay: Growth of human ACHN cells at 10 uM after 48 hrs by SRB assay
PC-3 [23] = assay: Growth inhibition of human PC3 cells at 3 uM after 48 hrs by SRB assay; values are per cent of control; details: PC-3, 48 h
NCI-H23 [24] = assay: Growth inhibition of human NCI-H23 cells at 1 uM after 48 hrs by SRB assay; values are per cent of control; details: NCI-H23, 48 h
NUGC-3 [25] = assay: Growth inhibition of human NUGC3 cells after 48 hrs by SRB assay; type: functional; details: NUGC-3, 48 h
[26] = biological target: Rho-related GTP-binding protein RhoB (Homo sapiens) (UniProt P62745); assay: Transactivation of RhoB (unknown origin) transfected in human HeLa cells at 5 uM measured over 10 secs by dual luciferase reporter gene assay; type: cell-based
HCT-15 [27] = assay: Growth inhibition of human HCT15 cells at 10 uM after 48 hrs by SRB assay; values are per cent of control; details: HCT-15, 48 h
NCI-H23 [28] = assay: Growth of human NCI-H23 cells at 0.3 uM after 48 hrs by SRB assay; details: NCI-H23, 48 h
MDA-MB-231 [29] = assay: Growth of human MDA-MB-231 cells at 1 uM after 48 hrs by SRB assay; details: MDA-MB-231, 48 h
HCT-15 [30] = assay: Growth inhibition of human HCT15 cells at 1 uM after 48 hrs by SRB assay; values are per cent of control; details: HCT-15, 48 h
NCI-H23 [31] = assay: Growth of human NCI-H23 cells at 10 uM after 48 hrs by SRB assay; details: NCI-H23, 48 h
HCT-15 [32] = assay: Growth inhibition of human HCT15 cells after 48 hrs by SRB assay; type: functional
MDA-MB-231 [33] = assay: Growth of human MDA-MB-231 cells at 0.1 uM after 48 hrs by SRB assay; details: MDA-MB-231, 48 h
PC-3 [34] = assay: Growth inhibition of human PC3 cells at 0.3 uM after 48 hrs by SRB assay; values are per cent of control; details: PC-3, 48 h
ACHN [35] = assay: Growth inhibition of human ACHN cells at 1 uM after 48 hrs by SRB assay; values are per cent of control
ACHN [36] = assay: Growth of human ACHN cells at 0.3 uM after 48 hrs by SRB assay
NCI-H23 [37] = assay: Growth inhibition of human NCI-H23 cells at 3 uM after 48 hrs by SRB assay; values are per cent of control; details: NCI-H23, 48 h

Chain of Rho-related GTP-binding protein RhoB (Homo sapiens) (P62745 whole entry): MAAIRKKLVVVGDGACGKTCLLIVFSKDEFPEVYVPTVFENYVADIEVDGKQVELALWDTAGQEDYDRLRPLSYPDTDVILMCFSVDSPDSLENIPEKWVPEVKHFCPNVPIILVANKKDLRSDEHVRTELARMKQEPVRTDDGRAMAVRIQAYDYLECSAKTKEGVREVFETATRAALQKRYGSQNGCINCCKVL

GI50 (MDA-MB-231 [1]) | GI50 (ACHN [6]) | GI50 (PC-3 [12]) | GI50 (NCI-H23 [20]) | Compound | growth, % of control at 3 µM (MDA-MB-231 [2]) | growth, % of control at 0.1 µM (HCT-15 [3]) | growth, % of control at 1 µM (NUGC-3 [4]) | growth, % of control at 0.3 µM (NUGC-3 [5]) | growth, % of control at 3 µM (HCT-15 [7]) | growth, % of control at 10 µM (PC-3 [8]) | growth, % of control at 0.1 µM (NCI-H23 [9]) | growth, % of control at 0.1 µM (NUGC-3 [10]) | growth, % of control at 10 µM (NUGC-3 [11]) | growth, % of control at 0.3 µM (MDA-MB-231 [13]) | growth, % of control at 0.1 µM (ACHN [14]) | growth, % of control at 0.1 µM (PC-3 [15]) | growth, % of control at 3 µM (ACHN [16]) | growth, % of control at 3 µM (NUGC-3 [17]) | growth, % of control at 1 µM (PC-3 [18]) | growth, % of control at 0.3 µM (HCT-15 [19]) | other results
1220 nM | 1740 nM | 820 nM | 710 nM | CCCCCCCCCCCCCCS(=O)(=O)N(C)CC[N+](C)(CC)CC | 34.3% | 95% | 45.7% | 104% | 60.5% | -1.7% | 96.5% | 98.7% | 3.1% | 101% | 100% | 114% | 51.7% | 10.6% | 79.9% | 96.3% | growth, % of control at 10 µM (MDA-MB-231 [21]): 16.5%; growth, % of control at 10 µM (ACHN [22]): 16.4%; growth, % of control at 3 µM (PC-3 [23]): 10.5%; growth, % of control at 1 µM (NCI-H23 [24]): 65.4%; GI50 (NUGC-3 [25]): 520 nM; Activity [26]: Active; growth, % of control at 10 µM (HCT-15 [27]): 27%; growth, % of control at 0.3 µM (NCI-H23 [28]): 91%; growth, % of control at 1 µM (MDA-MB-231 [29]): 81.5%; growth, % of control at 1 µM (HCT-15 [30]): 88.4%; growth, % of control at 10 µM (NCI-H23 [31]): -0.5%; GI50 (HCT-15 [32]; HCT-15, 48 h): 2350 nM; growth, % of control at 0.1 µM (MDA-MB-231 [33]): 103%; growth, % of control at 0.3 µM (PC-3 [34]): 108%; growth, % of control at 1 µM (ACHN [35]): 87.4%; growth, % of control at 0.3 µM (ACHN [36]): 102%; growth, % of control at 3 µM (NCI-H23 [37]): 16.4%
710 nM | 1350 nM | 530 nM | 300 nM | C=CC[N+](CC)(CC)CCN(C)S(=O)(=O)CCCCCCCCCCCCCC | 32.2% | 91.8% | 14.3% | 70.5% | 62.9% | 4.6% | 82.2% | 79.1% | -6.4% | 87.4% | 92.8% | 91.5% | 46.6% | -2.9% | 46.2% | 93.9% | growth, % of control at 10 µM (MDA-MB-231 [21]): 14.5%; growth, % of control at 10 µM (ACHN [22]): 20.3%; growth, % of control at 3 µM (PC-3 [23]): 22.7%; growth, % of control at 1 µM (NCI-H23 [24]): 31.1%; GI50 (NUGC-3 [25]): 210 nM; Activity [26]: Active; growth, % of control at 10 µM (HCT-15 [27]): 19.2%; growth, % of control at 0.3 µM (NCI-H23 [28]): 76.5%; growth, % of control at 1 µM (MDA-MB-231 [29]): 54.3%; growth, % of control at 1 µM (HCT-15 [30]): 85.1%; growth, % of control at 10 µM (NCI-H23 [31]): -5.7%; GI50 (HCT-15 [32]; HCT-15, 48 h): 2030 nM; growth, % of control at 0.1 µM (MDA-MB-231 [33]): 89.6%; growth, % of control at 0.3 µM (PC-3 [34]): 89.8%; growth, % of control at 1 µM (ACHN [35]): 73.4%; growth, % of control at 0.3 µM (ACHN [36]): 90.5%; growth, % of control at 3 µM (NCI-H23 [37]): 10%
720 nM | 2520 nM | 460 nM | 730 nM | CCCCCCCCCCCCCCS(=O)(=O)NCC(C)(C)C[N+](C)(C)CC | 32.8% | 112% | 33.8% | 107% | 91.6% | -26% | 121% | 110% | -15.7% | 89.3% | 101% | 106% | 60.6% | 3.9% | 19.6% | 111% | growth, % of control at 10 µM (MDA-MB-231 [21]): 12.9%; growth, % of control at 10 µM (ACHN [22]): 36.1%; growth, % of control at 3 µM (PC-3 [23]): -11.9%; growth, % of control at 1 µM (NCI-H23 [24]): 52.9%; GI50 (NUGC-3 [25]): 510 nM; Activity [26]: Active; growth, % of control at 10 µM (HCT-15 [27]): 59.4%; growth, % of control at 0.3 µM (NCI-H23 [28]): 109%; growth, % of control at 1 µM (MDA-MB-231 [29]): 49.9%; growth, % of control at 1 µM (HCT-15 [30]): 104%; growth, % of control at 10 µM (NCI-H23 [31]): -4%; GI50 (HCT-15 [32]): inactive; growth, % of control at 0.1 µM (MDA-MB-231 [33]): 91.2%; growth, % of control at 0.3 µM (PC-3 [34]): 99.3%; growth, % of control at 1 µM (ACHN [35]): 68.2%; growth, % of control at 0.3 µM (ACHN [36]): 97.7%; growth, % of control at 3 µM (NCI-H23 [37]): 28.3%
